# Key:
# B16BL6 melanoma cells [1] = assay: Tumor growth, paeonol in combination with 5-FU; format: in vivo; details: 5-FU 70 mg/kg i.p. at day 3 and 6; paeonol 1 mg per mouse oral twice a day for 21 days
# Method: Synergy effect of paeonol in combination with anti-cancer drug, 5-fluorouracil (5-FU) was investigated. For the induction of primary tumor, B16BL6 melanoma cells (1×10^6) suspended in 0.2 ml of PBS were subcutaneously injected into C57BL6 female mice (SLC Co., Japan; 6 week-old, 20-25 g of body weight) adapted for 1 week. […] The size of tumor was measured once per 1-2 days for 21 days after injecting cancer cells and then the volume of tumor was calculated in accordance with the following equation, (width)^2×(length)×0.52.
# B16BL6 melanoma cells [2] = assay: Lifetime elongation, paeonol in combination with 5-FU; format: in vivo, mouse; details: after 22 days, n=7
# Method: Effects of paeonol on lifetime elongation of tumor-induced mice were investigated.
# (§1) For the induction of primary tumor, B16BL6 melanoma cells (1×10^6) suspended in 0.2 ml of PBS were subcutaneously injected into C57BL6 female mice (SLC Co., Japan; 6 week-old, 20-25 g of body weight) adapted for 1 week.
# In 5-FU & paeonol treated group, 70 mg/kg per mouse of 5-FU was intraperitoneally injected at 3 day and 6 day after injecting cancer cells, and 1 mg per mouse of paeonol dissolved in 0.2 ml of 20% ethanol was orally administrated twice a day for 21 days after injecting cancer cells. In 5-FU treated group, 70 mg/kg per mouse of 5-FU was treated in the same manner as 5-FU & paeonol treated group. In the other hand, 0.2 ml of 20% ethanol was also orally administrated into control group and 5-FU treated group in the same manner as 5-FU & paeonol treated group.
# [3] = test system: normal human lung cell (BEAS-2B); assay: Cytotoxicity test by MTT assay, normal lung cell; format: cell-based
# Method: (§2) In order to examine the cytotoxicity of paeonol, 2×10^5 of normal human lung cell (BEAS-2B), human lung carcinoma cell (NCI-H460), human uterine carcinoma cell (HeLa) were treated with various concentrations (0.25, 0.5, 1, 2, 10 μg/ml) of paeonol for 24 hours, and then viabilities of each cells were measured by MTT assay.
# angiogenesis = assay: Mouse Matrigel model of angiogenesis (hemoglobin in Matrigel); format: in vivo; details: oral 0.5 mg per mouse twice a day (1 mg/day) for 4 days
# Method: Effects of oral administration of paeonol on angiogenesis were quantitatively investigated in mouse Matrigel model. […] 0.5 mg of the above isolated paeonol was dissolved in 0.2 ml of 20% ethanol, and then 0.5 mg per mouse of paeonol (1 mg/day) was orally administrated into the treated group (n=8) twice a day for 4 days. In the other hand, 0.2 ml of 20% ethanol was also orally administrated into the control group (n=8) in the same manner as treated group. On the fifth day of oral administration, Matrigel was separated from excised skin of each mouse, and the level of hemoglobin in the Matrigel was measured in order to determine the inhibition of angiogenesis quantitatively.
# [4] = test system: mouse lung carcinoma cell line, LLC (Lewis lung carcinoma); assay: Radiosensitization in LLC-transplanted mice, tumor growth rate; format: in vivo; details: for tumor growth rate went down as compared with control group: 5 mg/kg oral
# Method: Effect of treatment of paeonol during radiation into lung carcinoma cell line-transplanted animal on radiosensitization was investigated. 1×10^6 of mouse lung carcinoma cell line, LLC (Lewis lung carcinoma) cell were suspended in 0.2 ml of PBS, and then were injected into left leg of mouse in order to induce the tumor. LLC-transplanted mice were classified into 4 groups such as control group (n=10), irradiation-treated group (n=10), paeonol-treated group (n=10), and irradiation & paeonol-treated group (n=10). […] For control group and irradiation group, 20% ethanol was orally administered in the same manner as paeonol-treated group. […] The sizes (width, length) of tumor were measured for 30 days at an interval of 2 or 3 days, and then the volumes of tumor were calculated by the following equation, (width)^2×(length)×0.52. The tumor growth rates were also calculated by converting into the time which it takes for tumor volume to be 2000 mm^3.
# B16BL6 melanoma cells [5] = assay: Growth of solid tumor in B16BL6 melanoma-injected mice; format: in vivo, mouse; details: oral 1 mg per day for 17 days; compared with control group
# Method: Effects of administering the present composition comprising paeonol on the growth of solid tumor were investigated. For the induction of primary tumor, B16BL6 melanoma cells (1×10^6) suspended in 0.2 ml of PBS ([…]) were subcutaneously injected into C57BL6 female mice (SLC Co., Japan; 6 week-old, 20-25 g of body weight) adapted for 1 week. 0.5 mg of the above isolated paeonol was dissolved in 0.2 ml of 20% ethanol, and then 0.5 mg per mouse of paeonol (1 mg/day) was orally administrated into the treated group (n=7) twice a day for 17 days after injecting cancer cells. In the other hand, 0.2 ml of 20% ethanol was also orally administrated into the control group (n=7) in the same manner as treated group. The size of tumor was measured once per 1-2 days for 17 days after injecting cancer cells and then the volume of tumor was calculated in accordance with the following equation, (width)^2×(length)×0.52.
# [6] = test system: human lung carcinoma cell (NCI-H460); assay: Cytotoxicity test by MTT assay, lung carcinoma cell; format: cell-based
# Method: as §2
# [7] = Acute toxicity test in animal; format: in vivo; details: dosage of 100 mg/kg
# B16BL6 melanoma cells [8] = assay: Tumor metastasis into lung after intravenous injection of melanoma cells; format: in vivo, mouse
# Method: Inhibitory effects of the present composition comprising paeonol on tumor metastasis in tumor-induced mice were investigated. […] 0.25 mg of the above isolated paeonol was dissolved in 0.2 ml of 20% ethanol, and then 0.25 mg per mouse of paeonol (0.5 mg/day) was orally administrated into the treated group (n=6) twice a day for 14 days after injecting cancer cells. In the other hand, 0.2 ml of 20% ethanol was also orally administrated into the control group (n=6) in the same manner as treated group. After 14 days, mice were dissected, and then the numbers of colonies, which metastasized into lung, were counted.
# [9] = test system: mouse lung carcinoma cell line, LLC (Lewis lung carcinoma); assay: Radiosensitization in LLC-transplanted mice, survival; format: in vivo; details: for survival of mice: 5 mg/kg oral
# Method: Effect of treatment of paeonol during radiation into lung carcinoma cell line-transplanted animal on radiosensitization was investigated.
# 1×10^6 of mouse lung carcinoma cell line, LLC (Lewis lung carcinoma) cell were suspended in 0.2 ml of PBS, and then were injected into left leg of mouse in order to induce the tumor. LLC-transplanted mice were classified into 4 groups such as control group (n=10), irradiation-treated group (n=10), paeonol-treated group (n=10), and irradiation & paeonol-treated group (n=10).
# After the volumes of tumor were about 100-200 mm^3 (6-7 day after LLC injection), 5 Gy of ^60Co radiation was irradiated to irradiation-treated group and irradiation & paeonol-treated group three times at an interval of 2 or 3 days.
# After the existence of tumor was detected by touching with hand (4 day after LLC injection), 5 mg/kg of paeonol dissolved in 20% ethanol was orally administered into paeonol-treated group and irradiation & paeonol group once a day for 20 days. For control group and irradiation group, 20% ethanol was orally administered in the same manner as paeonol-treated group.
# Enhancing effects of paeonol in combination with radiation on efficacy of radiotherapy was determined by comparing both tumor growth rates and mouse survival rates of 4 groups with each other groups.
# [10] = test system: human uterine carcinoma cell (HeLa); assay: Cytotoxicity test by MTT assay, uterine carcinoma cell; format: cell-based
# Method: as §2
# B16BL6 melanoma cells [11] = assay: Radiosensitization in melanoma-transplanted mice, tumor volume; format: in vivo, mouse; details: for decrease of tumor volume compared with control group: paeonol-treated group, no irradiation
# Method: Effect of treatment of paeonol during radiation into melanoma-transplanted animal on radiosensitization was investigated. In order to induce primary tumor, B16BL6 melanoma cells (1×10^6) suspended in 0.2 ml of PBS was subcutaneously injected into C57BL6 female mice (SLC Co., Japan; 6 week-old […]) adapted for 1 week. Melanoma-transplanted mice were classified into 6 groups: control group (n=10), irradiation group (n=10), paeonol-treated groups (0.5 or 1 mg/kg per day) (n=10), and irradiation & paeonol-treated groups (0.5 or 1 mg/kg per day) (n=10), and then it was observed whether the combinational treatment of irradiation and paeonol enhances the radiosensitization of melanoma-transplanted animal. […] For control group and irradiation group, 20% ethanol was orally administered in the same manner as paeonol-treated group. The sizes (width, length) of tumor were measured for 30 days at an interval of 2 or 3 days, and then the volumes of tumor were calculated by the following equation, (width)^2×(length)×0.52.
# [12] = test system: human lung carcinoma cell line H460; assay: Radiosensitization, clone formation of lung carcinoma cell line H460; format: cell-based
# Method: […] At 7 day after irradiation, the clone formation (%) of each groups were measured and then the survival rates of each groups were compared with each other. Irradiation with high dose of radiation into cancer cell line prevents clone formation.
# B16BL6 melanoma cells [13] = assay: Lifetime elongation of tumor-induced mice; format: in vivo, mouse; details: after 22 days; oral 1 mg/day; n=7
# Method: Effects of the present composition comprising paeonol on lifetime elongation of tumor-induced mice were investigated.
# as §1
# 0.5 mg of the above isolated paeonol was dissolved in 0.2 ml of 20% ethanol, and then 0.5 mg per mouse of paeonol (1 mg/day) was orally administrated into the treated group (n=7) twice a day for 22 days after injecting cancer cells. In the other hand, 0.2 ml of 20% ethanol was also orally administrated into the control group (n=7) in the same manner as treated group.
# [14] = test system: uterine carcinoma cell line HeLa; assay: Radiosensitization, clone formation of uterine carcinoma cell line HeLa; format: cell-based, human
# Method: […] At 7 day after irradiation, the clone formation (%) of each groups were measured and then the survival rates of each groups were compared with each other.
# [15] = 10 μg/ml of paeonol, 24 hours, MTT
# [16] = Radiation 0 Gy, paeonol 1 μg/ml, 7 day
# [17] = Radiation 0 Gy, paeonol 2 μg/ml, 7 day
# [18] = Radiation 1 Gy, paeonol 2 μg/ml, 7 day after irradiation
# [19] = Radiation 2 Gy, paeonol 1 μg/ml, 7 day after irradiation
# [20] = Radiation 2 Gy, paeonol 2 μg/ml, 7 day after irradiation
# [21] = Radiation 3 Gy, paeonol 1 μg/ml, 7 day after irradiation
# [22] = Radiation 3 Gy, paeonol 2 μg/ml, 7 day after irradiation
structure (smiles),measurement,setting,value
"O=c1[nH]cc(F)c(=O)[nH]1 [Compound 5-FU, 5-fluorouracil]",inhibition of tumor growth compared with control group,B16BL6 melanoma cells [1],50%
same,survival rate,"B16BL6 melanoma cells [2]; 5-FU 70 mg/kg i.p. at day 3 and 6, paeonol 1 mg per mouse oral twice a day",14%
same,number of mice survived,B16BL6 melanoma cells [2],one
COc1ccc(C(C)=O)c(O)c1 [paeonol],cytotoxicity,[3]; [15],6%
same,LD50,[3]; human,did not show enough toxicity to calculate LD50
same,inhibition of angiogenesis,angiogenesis,about 67%
same,hemoglobin content of treated group as compared with control group,angiogenesis; Matrigel with bFGF and heparin,33%
same,tumor growth rate went down as compared with control group,"[4]; irradiation & paeonol-treated group, 5 Gy three times",1.4 fold
same,Tumor growth rate (Time which it takes for tumor volume to be 2000 mm^3),"[4]; irradiation & paeonol-treated group: 5 Gy 60Co three times, paeonol 5 mg/kg oral once a day for 20 days, control 16, irradiation alone 19",22 days
same,Tumor growth rate (Time which it takes for tumor volume to be 2000 mm^3),"[4]; paeonol-treated group, 5 mg/kg oral once a day for 20 days, no irradiation, control 16",19 days
same,tumor growth rate went down as compared with control group,"[4]; paeonol-treated group, no irradiation",1.2 fold
same,inhibition of tumor growth,B16BL6 melanoma cells [5],48%
same,cytotoxicity,[6]; [15],18%
same,LD50,[6]; human,did not show enough toxicity to calculate LD50
same,side effects during administration,[7],no side effects
same,colonies metastasized into lung per mouse,"B16BL6 melanoma cells [8]; oral 0.25 mg per mouse twice a day (0.5 mg/day) for 14 days, control 213±60",132±80 colonies
same,inhibition of metastasis into lung,B16BL6 melanoma cells [8]; oral 0.5 mg/day for 14 days,38%
same,increase of survival rate compared with control group,[9]; irradiation & paeonol-treated group,about 2 times
same,survival of mice,"[9]; irradiation & paeonol-treated group, 5 Gy three times, control 42, irradiation alone 60",78 days
same,survival of mice,"[9]; paeonol-treated group, no irradiation, control 42",69 days
same,cytotoxicity,[10]; [15],15%
same,LD50,[10]; human,did not show enough toxicity to calculate LD50
same,"decrease of tumor volume compared with control group, maximum","B16BL6 melanoma cells [11]; irradiation & paeonol-treated groups (0.5 or 1.0 mg/kg), 5 Gy at 4 and 6 day, irradiation alone 33.1%",≤ 58.9%
same,decrease of tumor volume compared with control group,B16BL6 melanoma cells [11]; 0.5 mg/kg oral once a day,6.4%
same,decrease of tumor volume compared with control group,B16BL6 melanoma cells [11]; 1.0 mg/kg oral once a day,9.3%
same,decrease of clone formation compared with control group irradiated with 3 Gy,[12]; 1 μg/ml of paeonol,16%
same,decrease of clone formation compared with control group irradiated with 3 Gy,[12]; 2 μg/ml of paeonol,31%
same,Clone formation (%),[12]; [16],100%
same,Clone formation (%),[12]; [17],100%
same,Clone formation (%),[12]; [18],71.1%
same,Clone formation (%),"[12]; Radiation 1 Gy, paeonol 12 μg/ml, 7 day after irradiation",72.5%
same,Clone formation (%),[12]; [19],46.4%
same,Clone formation (%),[12]; [20],43.3%
same,Clone formation (%),[12]; [21],25.8%
same,Clone formation (%),[12]; [22],21.2%
same,number of mice survived,B16BL6 melanoma cells [13],three
same,survival rate,B16BL6 melanoma cells [13],43%
same,decrease of clone formation compared with control group irradiated with 3 Gy,[14]; 1 μg/ml of paeonol,23%
same,decrease of clone formation compared with control group irradiated with 3 Gy,[14]; 2 μg/ml of paeonol,39%
same,Clone formation (%),[14]; [16],100%
same,Clone formation (%),[14]; [17],100%
same,Clone formation (%),"[14]; Radiation 1 Gy, paeonol 1 μg/ml, 7 day after irradiation",73.4%
same,Clone formation (%),[14]; [18],72.8%
same,Clone formation (%),[14]; [19],45.5%
same,Clone formation (%),[14]; [20],44.7%
same,Clone formation (%),[14]; [21],12.3%
same,Clone formation (%),[14]; [22],10.9%

# Source: patent US10933030B2, “Use of paeonol for inhibiting angiogenesis or for enhancing radiosensitization” (priority 2005, dated 2021)
